Literature values in patent publication US6346634B1, “Chemical compound containing a superoxide scavenger and an organic nitrate or nitrite moiety” (Teijin Limited, priority 1999, dated 2002).

Biological target: XO (Homo sapiens, UniProt P47989)
Settings: inhibition of superoxide-generating NADH oxidase activity

XO, sequence (P47989 whole entry): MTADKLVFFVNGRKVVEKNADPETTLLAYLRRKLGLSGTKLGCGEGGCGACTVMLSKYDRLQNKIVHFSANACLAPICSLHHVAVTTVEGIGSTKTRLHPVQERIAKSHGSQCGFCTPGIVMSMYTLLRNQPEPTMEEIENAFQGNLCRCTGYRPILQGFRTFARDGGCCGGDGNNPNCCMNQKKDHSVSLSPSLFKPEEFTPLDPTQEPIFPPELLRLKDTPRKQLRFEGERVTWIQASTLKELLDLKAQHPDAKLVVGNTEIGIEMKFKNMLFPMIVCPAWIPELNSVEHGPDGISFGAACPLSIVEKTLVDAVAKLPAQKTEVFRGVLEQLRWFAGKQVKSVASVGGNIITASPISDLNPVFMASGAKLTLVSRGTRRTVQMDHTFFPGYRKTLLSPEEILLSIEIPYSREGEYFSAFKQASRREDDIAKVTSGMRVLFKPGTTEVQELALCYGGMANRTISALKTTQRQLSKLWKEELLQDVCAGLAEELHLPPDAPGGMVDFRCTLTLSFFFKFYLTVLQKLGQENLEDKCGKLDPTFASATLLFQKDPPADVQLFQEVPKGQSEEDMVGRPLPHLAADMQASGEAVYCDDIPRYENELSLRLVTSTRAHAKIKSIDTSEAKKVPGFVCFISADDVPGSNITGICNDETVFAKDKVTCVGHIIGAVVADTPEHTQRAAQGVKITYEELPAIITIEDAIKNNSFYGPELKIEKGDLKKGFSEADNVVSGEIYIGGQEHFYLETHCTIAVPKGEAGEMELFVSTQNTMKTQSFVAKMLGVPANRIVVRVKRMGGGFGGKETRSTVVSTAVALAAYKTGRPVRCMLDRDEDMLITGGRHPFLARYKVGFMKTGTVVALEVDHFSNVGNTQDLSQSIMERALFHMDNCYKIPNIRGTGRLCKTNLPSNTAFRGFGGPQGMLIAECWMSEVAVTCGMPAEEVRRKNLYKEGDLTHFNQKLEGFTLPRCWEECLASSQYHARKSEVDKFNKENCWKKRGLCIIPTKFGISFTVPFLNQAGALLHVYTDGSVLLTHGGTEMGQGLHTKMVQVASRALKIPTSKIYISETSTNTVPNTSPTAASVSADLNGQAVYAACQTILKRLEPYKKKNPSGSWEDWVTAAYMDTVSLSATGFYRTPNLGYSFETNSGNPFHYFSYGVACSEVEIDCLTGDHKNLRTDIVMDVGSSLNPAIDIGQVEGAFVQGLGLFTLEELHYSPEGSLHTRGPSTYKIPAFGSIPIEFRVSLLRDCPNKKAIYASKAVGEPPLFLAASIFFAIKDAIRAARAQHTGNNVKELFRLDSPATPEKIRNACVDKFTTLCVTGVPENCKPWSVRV

Row | Structure (SMILES) | NADH-oxidizing activity of XO
1 | Nc1c(-c2cccc(C(F)(F)F)c2)nsc1C(=O)O [Amfiutizole] | not suppressible
2 | COc1cc(-c2cnn3c(=O)nc[n-]c23)ccc1[S+]([O-])c1ccccc1.[Na+] (centres unmarked) [BOF-4272] | not suppressible
3 | Oc1ncnc2[nH]ncc12 [allopurinol] | not suppressible
4 | c1ccc2c(c1)[I+]c1ccccc1-2 [diphenyleneiodonium] | blocked
5 | O=c1[nH]c(=O)c2c[nH]nc2[nH]1 [oxypurinol] | not suppressible
